Here are results for 53 molecules from ChEMBL document CHEMBL1201862, “PubChem BioAssay data set” (2004).

Active and inactive are the calls of the source. Bounds are passed on as bounds.

Assay [1] in a line: viability of uninfected HEp-2 cells – cell-based, HTS, cytotoxicity control for RSV inhibitor project, dose response (AID 2410). The assay is classed as functional. The following applies: human respiratory syncytial virus.
Another assay deals with Cytochrome P450 2D6 (Homo sapiens, UniProt P10635).
Sequence of Cytochrome P450 2D6 (P10635 whole entry): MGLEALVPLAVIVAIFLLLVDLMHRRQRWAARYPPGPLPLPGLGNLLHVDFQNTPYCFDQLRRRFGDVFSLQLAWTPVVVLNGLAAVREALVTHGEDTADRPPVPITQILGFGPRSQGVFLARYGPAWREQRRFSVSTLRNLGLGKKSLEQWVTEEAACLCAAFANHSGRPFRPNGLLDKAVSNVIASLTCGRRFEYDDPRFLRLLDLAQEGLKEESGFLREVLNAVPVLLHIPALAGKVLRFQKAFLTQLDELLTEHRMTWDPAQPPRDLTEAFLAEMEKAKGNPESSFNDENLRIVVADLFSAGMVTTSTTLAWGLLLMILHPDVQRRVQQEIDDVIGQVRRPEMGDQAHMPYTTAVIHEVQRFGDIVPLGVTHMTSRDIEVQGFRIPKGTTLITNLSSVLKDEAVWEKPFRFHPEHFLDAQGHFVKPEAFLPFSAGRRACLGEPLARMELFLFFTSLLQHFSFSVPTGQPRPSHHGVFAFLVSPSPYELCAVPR
The target of the next assay is Cytochrome P450 2C9 (Homo sapiens, UniProt P11712).
Sequence of Cytochrome P450 2C9 (P11712 whole entry): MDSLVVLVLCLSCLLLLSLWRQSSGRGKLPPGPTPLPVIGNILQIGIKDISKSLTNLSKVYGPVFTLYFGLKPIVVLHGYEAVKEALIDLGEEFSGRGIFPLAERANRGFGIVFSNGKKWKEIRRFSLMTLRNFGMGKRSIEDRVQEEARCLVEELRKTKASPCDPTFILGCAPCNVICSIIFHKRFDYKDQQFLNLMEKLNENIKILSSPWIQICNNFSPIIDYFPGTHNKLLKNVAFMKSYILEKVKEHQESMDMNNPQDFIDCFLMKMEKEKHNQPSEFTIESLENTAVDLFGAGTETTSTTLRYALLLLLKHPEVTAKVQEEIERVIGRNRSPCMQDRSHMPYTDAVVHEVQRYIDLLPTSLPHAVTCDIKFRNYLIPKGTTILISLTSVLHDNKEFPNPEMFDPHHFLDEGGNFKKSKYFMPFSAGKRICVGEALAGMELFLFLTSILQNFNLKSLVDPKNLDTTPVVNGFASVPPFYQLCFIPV
The target in another assay is Cytochrome P450 3A4 (Homo sapiens, UniProt P08684).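 Further: CYP3A4 tested as one member of a cytochrome P450 panel screen.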
Sequence of Cytochrome P450 3A4 (P08684 whole entry): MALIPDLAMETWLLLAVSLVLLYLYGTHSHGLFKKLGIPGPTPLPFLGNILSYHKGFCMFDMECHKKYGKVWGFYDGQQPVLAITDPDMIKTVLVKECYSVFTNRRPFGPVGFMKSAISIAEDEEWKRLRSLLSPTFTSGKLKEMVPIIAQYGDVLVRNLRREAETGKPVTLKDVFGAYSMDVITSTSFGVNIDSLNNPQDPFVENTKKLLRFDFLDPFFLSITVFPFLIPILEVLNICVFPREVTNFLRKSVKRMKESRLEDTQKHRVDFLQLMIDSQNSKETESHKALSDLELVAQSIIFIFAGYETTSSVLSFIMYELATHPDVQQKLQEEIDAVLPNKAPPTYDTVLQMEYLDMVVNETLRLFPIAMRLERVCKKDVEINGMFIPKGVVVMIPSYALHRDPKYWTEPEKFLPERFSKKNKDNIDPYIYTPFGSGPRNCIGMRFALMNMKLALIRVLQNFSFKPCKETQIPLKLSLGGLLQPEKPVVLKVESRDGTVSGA
A short description of assay [2]: NIH3T3 cell viability loss – ATP luminescence, mouse fibroblasts, counter-screen, dose response (AID 2010).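 Further: cells exposed to compound for about 90 hours before reading.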 The format is functional, cell-based.
Assay [3] in a line: Trypanosoma cruzi growth suppression in host cells – NIH3T3 host cells, beta-gal luminescence, confirmation (AID 2044).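 Further: intracellular parasites grown in NIH/3T3 mouse fibroblasts as host cells; luminescent beta-galactosidase reporter signal from transgenic T. cruzi replicating inside host cells; inhibitors lower the luminescence signal.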 The assay is classed as functional, cell-based.

The term CC50 denotes the concentration at which the toxic effect on the cells reaches its halfway point. One may read the AC50 as the concentration giving half of the maximal activity seen. By EC50 is commonly meant the concentration that produces a half-maximal response.

As for `c1ccc(Nc2nc(-c3ccccc3)nc3ccccc23)cc1`, in assay [1], the CC50 is 24.8 µM (active).

As to `CCOC(=O)C1=C2SCC(=O)N2C(N)=C(C#N)C1`, the AC50 on Cytochrome P450 2D6 was 11.2 µM (inconclusive); at Cytochrome P450 2C9 it was 20 µM (inconclusive).

In the case of `S[C@@H]1CCCN(Cc2ccccc2)C1`, the AC50 at Cytochrome P450 3A4 is 3.98 µM (inconclusive).

As to `CC1CCc2nc(NC(=O)c3ccc(S(=O)(=O)N4CCCc5ccccc54)cc3)sc2C1` (centres undefined), the EC50 in assay [2] was > 60 µM (not active); in assay [3], 1.42 µM (active).

In the case of `CCC(C)c1ccc(NC(=O)c2cccs2)cc1` (centres undefined), the CC50 in assay [1] was < 0.1 µM (active).

With `Clc1ccccc1CSc1cc2c(nn1)-c1ccccc1CC2`, the CC50 in assay [1] was 22.9 µM (active).

In the case of `COc1ccc2nc(O)c(CNc3cccc(C)c3)cc2c1`, the half-maximal cytotoxic concentration (CC50) in assay [1] is 6.97 µM (active).

In the case of `CCC(=O)NC(=S)N1CCN(c2ccc([N+](=O)[O-])cc2Cl)CC1`, the AC50 at Cytochrome P450 3A4 is 28.2 µM (inconclusive).

In the case of `COc1cccc(CNC(=O)C2CCN(S(=O)(=O)N3CCCCC3)CC2)c1`, on Cytochrome P450 2C9, the AC50 is 11.2 µM (inconclusive).

On to `COCc1ccc(CN2CCCC(CCC(=O)NCc3cccc(OC)c3)C2)o1` (centres undefined), for which the EC50 was > 60 µM (not active) in assay [2] and 0.914 µM (active) in assay [3].

Regarding `O=C(c1ccc(Cl)cc1)N1CCN(c2ccc([N+](=O)[O-])c(NCc3cccnc3)c2)CC1`, the CC50 in assay [1] was 35.8 µM (active).

`COC(=O)CC[C@@H](C)[C@H]1CC[C@H]2[C@H]3CC[C@H]4C[C@@H]5CC[C@@]4(C)C3(O5)[C@@H](Br)[C@@H](Br)[C@@]12C`: at Cytochrome P450 3A4, the concentration at half-maximal activity (AC50) is 3.98 µM (inconclusive).

In the case of `O=c1cnc2cnc(N3CCOCC3)nc2n1CCc1ccccc1`, the AC50 at Cytochrome P450 3A4 was 15.8 µM (inconclusive).

In the case of `O=C(c1cccs1)n1nc(-c2ccc(Cl)cc2)nc1NCc1ccco1`, the half-maximal activity concentration (AC50) at Cytochrome P450 2C9 was 12.6 µM (inconclusive).

On to `COc1cc(/C=C(/C#N)c2nc3ccccc3[nH]2)ccc1Oc1ncccc1[N+](=O)[O-]`, for which the AC50 on Cytochrome P450 2D6 was 3.16 µM (inconclusive).

Take `CC(C)(C)c1ccc(C(=O)N2CCC(C(=O)NC3CCCCCC3)CC2)cc1`: in assay [1], the CC50 is 42 µM (active).

For `c1ccc2c(N3CCOCC3)nc(-c3ccncc3)nc2c1`, the CC50 in assay [1] was 42.6 µM (active).

As to `Cc1cc(C)c(C#N)c(OCC(=O)c2ccc(Br)cc2)n1`, on Cytochrome P450 3A4, the AC50 is 3.55 µM (inconclusive).

Take `O=C(Cc1sc(Nc2ccccc2)nc1-c1ccccc1)NCc1ccccc1`: the CC50 in assay [1] is 11.2 µM (active).

Regarding `CC1CCc2sc3nc(NCc4ccco4)n4ncnc4c3c2C1` (centres undefined), the CC50 in assay [1] was 30.3 µM (active).

For `CCCS(=O)(=O)N1CCN(Cc2ccc3c(c2)c2ccccc2n3CC)CC1`, the CC50 in assay [1] was 20.4 µM (active).

Consider `Cc1ccc(NC2=NC(=O)CS2)cc1`, for which the CC50 in assay [1] is 34.3 µM (active).

For `O=C(/C=C/c1cccc([N+](=O)[O-])c1)NCCSCc1ccccc1Cl`, the CC50 in assay [1] was 25.4 µM (active).

For the molecule `Cn1nc([N+](=O)[O-])nc1Oc1ccccc1N`, the EC50 in assay [2] was > 60 µM (not active); in assay [3], 1.08 µM (active).

For `O=C(NCCN1CCN(C(=O)C(c2ccccc2)c2ccccc2)CC1)C(=O)Nc1ccccc1`, the AC50 at Cytochrome P450 2C9 is 12.6 µM (inconclusive).

Take `O=C(Oc1ccccc1)N1CCC2(CCCN(c3ccccn3)C2)CC1`: the AC50 is 39.8 µM (inconclusive) on Cytochrome P450 2D6 and 5.01 µM (inconclusive) on Cytochrome P450 2C9.

Regarding `CC(C)N1CCN(Cc2ccc(-c3ccccc3Cl)o2)CC1CCO` (centres undefined), the EC50 in assay [2] was > 60 µM (inconclusive); in assay [3] it was 1.61 µM (active).

Regarding `COc1ccc(CCNc2cc(C)nc3c(-c4ccccc4)cnn23)cc1OC`, the CC50 in assay [1] is 43.2 µM (active).

In the case of `CC(C)NC(=O)c1sc2nc3c(c(-c4cccs4)c2c1N)CN(C)CC3`, the EC50 in assay [2] is > 60 µM (inconclusive); in assay [3] it was 0.856 µM (active).

As for `O=C(NCc1cccnc1)c1c(O)c2cccc3c2n(c1=O)CCC3`, in assay [1], the CC50 was 22.8 µM (active).

On to `Cc1ccc(NC(=O)CC2CS(=O)(=O)CC2CC(=O)Nc2ccc(C)c(C)c2)cc1C` (centres undefined), for which, on Cytochrome P450 2C9, the AC50 is 2.82 µM (inconclusive).

Consider `Cc1cc(NC(=S)Nc2ccccc2)ccc1Br`, for which the AC50 at Cytochrome P450 2C9 is 11.2 µM (inconclusive).

Consider `Cc1nc(N2CCOCC2)nc(N2CCN(c3ccccc3)CC2)c1[N+](=O)[O-]`, for which the AC50 on Cytochrome P450 3A4 is 3.55 µM (inconclusive).

Take `COc1ccc(CCN(C)CC(=O)Nc2c(C)cc(C)cc2C)cc1OC`: the EC50 in assay [2] is > 60 µM (not active); in assay [3], 0.592 µM (active).

Consider `O=C1Nc2ccccc2CCC1Sc1nnc(-c2ccc(Cl)cc2)s1` (centres undefined), for which, in assay [1], the CC50 was 3.7 µM (active).

Regarding `COc1ccc(C(=O)C2CCCN(Cc3cnc(N4CCCC4)s3)C2)cc1OC` (centres undefined), the figures for the EC50 in assay [2] and in assay [3] were > 30 µM (not active) and 0.26 µM (active), respectively.

On to `NC(=O)C1CCN(C(=O)C(=O)c2cn(CC(=O)N3CCCCCC3)c3ccccc23)CC1`, for which the EC50 in assay [2] is > 60 µM (not active); in assay [3], 1.32 µM (active).

With `Cc1ccc(CN(Cc2cccnc2)C(S)=Nc2cc(Cl)ccc2C)cc1`, the EC50 is > 60 µM (not active) in assay [2] and 1.61 µM (active) in assay [3].

Regarding `Cc1ccc(/C=C/C2=Cc3c(sc(NC(=O)CSc4nnc(N)[nH]4)c3C#N)C(C)(C)C2)o1`, the half-maximal activity concentration (AC50) at Cytochrome P450 2D6 was 22.4 µM (inconclusive).

Take `CCCN(CC#CC(O)(c1ccccc1)c1cccnc1)CCC` (centres undefined): the EC50 was > 60 µM (not active) in assay [2] and 0.463 µM (active) in assay [3].

`CO[C@@H]1/C=C\O[C@@]2(C)Oc3c(C)c(O)c4c(c3C2=O)/C(=N/[C@H]2CC[C@H](O)O[C@@H]2C)C=C(NC(=O)/C(C)=C\C(=O)[C@@H]2C[C@@H]2[C@@H](O)[C@H](C)[C@@H](O)[C@H](C)[C@H](OC(C)=O)[C@@H]1C)C4=O`: the concentration at half-maximal activity (AC50) on Cytochrome P450 2D6 was 3.16 µM (inconclusive); at Cytochrome P450 2C9 it was 3.98 µM (inconclusive).

For `c1cncc(-c2ccc3ncnc(NCCN4CCOCC4)c3c2)c1`, the AC50 on Cytochrome P450 2D6 was 39.8 µM (inconclusive).

Regarding `COCCn1c(=O)c(-c2ccc(F)cc2)nc2cncnc21`, the AC50 at Cytochrome P450 3A4 is 12.6 µM (inconclusive).

On to `CCOC(=O)c1cc2sc(C)cc2n1CCCN1C(=O)c2ccccc2C1=O`, for which the AC50 on Cytochrome P450 2D6 was 15.8 µM (inconclusive).

As for `Cc1ccc(S(=O)(=O)N2CCC(=O)N(C(COCc3ccc(Cl)cc3Cl)Cc3ccccc3)CC2)cc1` (centres undefined), the EC50 in assay [2] was 34.1 µM (active); in assay [3] it was 1.58 µM (active).

For `CCOC(=O)c1oc2ccc(CNC3CCCCC3)c(Cl)c2c1C`, the EC50 was > 60 µM (not active) in assay [2] and 1.73 µM (active) in assay [3].

Turning to `Cc1ccc2ccc(S(=O)(=O)NCc3ccco3)cc2c1`, the CC50 in assay [1] is 29.2 µM (active).

Take `Cc1nc(N)sc1-c1csc(Nc2cccc(O)c2)n1`: the CC50 in assay [1] was 48.4 µM (active).

In the case of `O=C1CC(N2CCN(CCc3ccccn3)CC2)C(=O)N1c1ccc(Cl)cc1` (centres undefined), the AC50 on Cytochrome P450 2D6 is 12.6 µM (inconclusive).

Consider `Cc1ccc2occ(/C=N/NC(N)=S)c(=O)c2c1`, for which the CC50 in assay [1] is > 50 µM (active).

As for `COc1ccccc1CNc1ncnc2ccc(-c3ccccc3C#N)cc12`, the half-maximal activity concentration (AC50) at Cytochrome P450 2D6 was 3.16 µM (inconclusive); on Cytochrome P450 2C9, 0.631 µM (inconclusive).

Take `CCCCOC(=O)c1ccc(O)cc1` [BUTYLPARABEN]: the AC50 on Cytochrome P450 2D6 is 12.6 µM (inconclusive).

`Cc1sc2ccccc2c1CC1=NCCN1` [METIZOLINE]: the AC50 on Cytochrome P450 2D6 is 31.6 µM (inconclusive).
